In PMC4582818, “Identification of novel metabolic interactions controlling carbon flux from xylose to ethanol in natural and recombinant yeasts” (Biotechnology for Biofuels, 2015):

Tests used:
CtXR [1] = target: T1, CtXR (Yamadazyma tenuis, UniProt O74237); experiment: steady-state kinetics; type: biochemical
T1 construct: gene XYL1; xylose reductase of C. tenuis CBS4435; preparation described only in Additional file 3
T1 sequence (O74237 1-322): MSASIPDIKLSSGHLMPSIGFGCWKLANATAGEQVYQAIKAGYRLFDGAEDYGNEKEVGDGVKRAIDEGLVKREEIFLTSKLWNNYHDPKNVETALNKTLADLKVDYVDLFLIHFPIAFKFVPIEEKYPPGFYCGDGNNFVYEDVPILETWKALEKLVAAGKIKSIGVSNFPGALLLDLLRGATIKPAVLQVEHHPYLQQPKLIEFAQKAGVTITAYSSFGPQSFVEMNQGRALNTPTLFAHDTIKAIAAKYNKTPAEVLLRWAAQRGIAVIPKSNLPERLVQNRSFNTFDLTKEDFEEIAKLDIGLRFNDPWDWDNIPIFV
Description: (§1) steady-state kinetics on CtXR

CtG6PDH = target: T2, CtG6PDH (Yamadazyma tenuis, UniProt G3B8L7); experiment: enzyme kinetics, product inhibition; type: cell-based; details: competitive product inhibition; read-out: K i,NADPH
T2 construct: gene CANTEDRAFT_115211; native enzyme, probably in cell-free extract of CBS4435 (details only in Additional file 3)
T2 sequence (G3B8L7 1-502): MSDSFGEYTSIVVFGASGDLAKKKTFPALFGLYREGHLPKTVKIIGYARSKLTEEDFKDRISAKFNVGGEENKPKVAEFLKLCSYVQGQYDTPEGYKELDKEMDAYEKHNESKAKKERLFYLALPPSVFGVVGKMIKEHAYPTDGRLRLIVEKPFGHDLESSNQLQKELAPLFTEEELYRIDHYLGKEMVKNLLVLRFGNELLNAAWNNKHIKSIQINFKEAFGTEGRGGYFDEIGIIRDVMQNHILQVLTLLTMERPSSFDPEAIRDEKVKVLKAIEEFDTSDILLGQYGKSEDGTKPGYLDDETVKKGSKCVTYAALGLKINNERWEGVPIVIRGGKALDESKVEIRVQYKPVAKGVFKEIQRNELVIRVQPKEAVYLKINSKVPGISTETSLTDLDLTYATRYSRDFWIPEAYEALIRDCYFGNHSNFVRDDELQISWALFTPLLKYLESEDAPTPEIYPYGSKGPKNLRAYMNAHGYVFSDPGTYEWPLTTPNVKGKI
Description: enzyme kinetics, product inhibition on CtG6PDH

CtXR [2] = target: T1, CtXR; experiment: ligand-binding analysis by fluorescence spectroscopy; details: read-out: NADP(H) (R 2) / PP (R 5), UG (R 9), LG (R 10)
Description: ligand-binding analysis by fluorescence spectroscopy on CtXR

steady-state kinetics [3] = substrate: NC(=O)C1=CN([C@@H]2O[C@H](COP(=O)(O)OP(=O)(O)OC[C@H]3O[C@@H](n4cnc5c(N)ncnc54)[C@H](OP(=O)(O)O)[C@@H]3O)[C@@H](O)[C@H]2O)C=CC1; experiment: steady-state kinetics; type: biochemical, Yamadazyma tenuis; details: xylose reduction; pH 7.5; 25.0 °C; varied: cofactor
Description: as §1

steady-state kinetics [4] = substrate: NC(=O)c1ccc[n+]([C@@H]2O[C@H](COP(=O)(O)OP(=O)(O)OC[C@H]3O[C@@H](n4cnc5c(N)ncnc54)[C@H](O)[C@@H]3O)[C@@H](O)[C@H]2O)c1; experiment: steady-state kinetics; type: biochemical, Yamadazyma tenuis; details: xylitol oxidation; pH 7.5; 25.0 °C; varied: cofactor
Description: as §1

steady-state kinetics [5] = substrate: NC(=O)C1=CN([C@@H]2O[C@H](COP(=O)(O)OP(=O)(O)OC[C@H]3O[C@@H](n4cnc5c(N)ncnc54)[C@H](O)[C@@H]3O)[C@@H](O)[C@H]2O)C=CC1; experiment: steady-state kinetics; type: biochemical, Yamadazyma tenuis; details: xylose reduction; pH 7.5; 25.0 °C; varied: cofactor
Description: as §1

steady-state kinetics [6] = substrate: NC(=O)c1ccc[n+]([C@@H]2O[C@H](COP(=O)(O)OP(=O)(O)OC[C@H]3O[C@@H](n4cnc5c(N)ncnc54)[C@H](OP(=O)(O)O)[C@@H]3O)[C@@H](O)[C@H]2O)c1; experiment: steady-state kinetics; type: biochemical, Yamadazyma tenuis; details: xylitol oxidation; pH 7.5; 25.0 °C; varied: cofactor
Description: as §1

With NC(=O)C1=CN([C@@H]2O[C@H](COP(=O)(O)OP(=O)(O)OC[C@H]3O[C@@H](n4cnc5c(N)ncnc54)[C@H](O)[C@@H]3O)[C@@H](O)[C@H]2O)C=CC1 [NADH] the “NAD(H) (R 1)” value (CtXR [1]; dissociation constant of NADH in the rate equation, xylose reduction) was 0.18 ± 0.04 mM.

In the case of NC(=O)C1=CN([C@@H]2O[C@H](COP(=O)(O)OP(=O)(O)OC[C@H]3O[C@@H](n4cnc5c(N)ncnc54)[C@H](OP(=O)(O)O)[C@@H]3O)[C@@H](O)[C@H]2O)C=CC1 [NADPH], the Ki (CtG6PDH) is reported as 200 µM.

Work on NC(=O)c1ccc[n+]([C@@H]2O[C@H](COP(=O)(O)OP(=O)(O)OC[C@H]3O[C@@H](n4cnc5c(N)ncnc54)[C@H](OP(=O)(O)O)[C@@H]3O)[C@@H](O)[C@H]2O)c1 [NADP^+] yielded a Kd (CtXR [2]) of 5.9 ± 0.4 µM.

NC(=O)c1ccc[n+]([C@@H]2O[C@H](COP(=O)(O)OP(=O)(O)OC[C@H]3O[C@@H](n4cnc5c(N)ncnc54)[C@H](O)[C@@H]3O)[C@@H](O)[C@H]2O)c1 [NAD^+] showed a Ki (CtXR [1]; read-out: NAD(H) (R 1)) of 344 ± 30 µM.

B1: CtXR (Yamadazyma tenuis) (protein)
chain: MSASIPDIKLSSGHLMPSIGFGCWKLANATAGEQVYQAIKAGYRLFDGAEDYGNEKEVGDGVKRAIDEGLVKREEIFLTSKLWNNYHDPKNVETALNKTLADLKVDYVDLFLIHFPIAFKFVPIEEKYPPGFYCGDGNNFVYEDVPILETWKALEKLVAAGKIKSIGVSNFPGALLLDLLRGATIKPAVLQVEHHPYLQQPKLIEFAQKAGVTITAYSSFGPQSFVEMNQGRALNTPTLFAHDTIKAIAAKYNKTPAEVLLRWAAQRGIAVIPKSNLPERLVQNRSFNTFDLTKEDFEEIAKLDIGLRFNDPWDWDNIPIFV
notes: xylose reductase of C. tenuis CBS4435; preparation described only in Additional file 3
For B1, the Km (steady-state kinetics [3]) was 5 ± 2 µM, the Km (steady-state kinetics [4]) was 19 ± 5 µM and the Km (steady-state kinetics [5]) was 40 ± 10 µM. The Km (steady-state kinetics [6]) was 8 ± 1 µM.
